ChEMBL document CHEMBL4507288 (2021)
Values belong to the molecule of their own block, whether it stands above or below them. Active and inactive are the calls of the source. No cut-off for these calls is given here.

Experiments:
[1] = target: Alpha-2B adrenergic receptor (Homo sapiens) (UniProt P18089); details: Compound concentration 10.0 uM
D(2) dopamine receptor = D(2) dopamine receptor (Homo sapiens, UniProt P14416); details: Compound concentration 10.0 uM
D(3) dopamine receptor [2] = target: T1, D(3) dopamine receptor (Homo sapiens, UniProt P35462); assay: GPCRScan assay: inhibition of D3; design: radioligand conc. used [nm] 0.5 – 1.8, parental cells HEKT
T1 sequence (P35462 whole entry): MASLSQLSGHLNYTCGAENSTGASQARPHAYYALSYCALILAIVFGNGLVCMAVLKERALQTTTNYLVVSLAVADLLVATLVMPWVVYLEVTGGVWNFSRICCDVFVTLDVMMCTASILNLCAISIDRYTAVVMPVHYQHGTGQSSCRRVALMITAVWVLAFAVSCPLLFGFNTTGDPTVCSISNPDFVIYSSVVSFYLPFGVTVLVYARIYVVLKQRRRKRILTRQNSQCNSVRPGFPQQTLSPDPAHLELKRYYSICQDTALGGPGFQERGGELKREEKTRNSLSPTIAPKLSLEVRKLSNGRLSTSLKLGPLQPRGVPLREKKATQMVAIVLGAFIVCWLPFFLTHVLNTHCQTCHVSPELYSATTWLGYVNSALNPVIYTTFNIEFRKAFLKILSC

[3] = target: Alpha-1D adrenergic receptor (Homo sapiens) (UniProt P25100); details: Compound concentration 10.0 uM
[4] = target: 5-hydroxytryptamine receptor 5A (Homo sapiens) (UniProt P47898); details: Compound concentration 10.0 uM
[5] = target: Muscarinic acetylcholine receptor M5 (Homo sapiens) (UniProt P08912); details: Compound concentration 10.0 uM
[6] = target: Mu-type opioid receptor (Homo sapiens) (UniProt P35372); details: Compound concentration 10.0 uM
[7] = target: 5-hydroxytryptamine receptor 6 (Homo sapiens) (UniProt P50406); details: Compound concentration 10.0 uM
Sequence of 5-hydroxytryptamine receptor 6 (Homo sapiens) (P50406 whole entry): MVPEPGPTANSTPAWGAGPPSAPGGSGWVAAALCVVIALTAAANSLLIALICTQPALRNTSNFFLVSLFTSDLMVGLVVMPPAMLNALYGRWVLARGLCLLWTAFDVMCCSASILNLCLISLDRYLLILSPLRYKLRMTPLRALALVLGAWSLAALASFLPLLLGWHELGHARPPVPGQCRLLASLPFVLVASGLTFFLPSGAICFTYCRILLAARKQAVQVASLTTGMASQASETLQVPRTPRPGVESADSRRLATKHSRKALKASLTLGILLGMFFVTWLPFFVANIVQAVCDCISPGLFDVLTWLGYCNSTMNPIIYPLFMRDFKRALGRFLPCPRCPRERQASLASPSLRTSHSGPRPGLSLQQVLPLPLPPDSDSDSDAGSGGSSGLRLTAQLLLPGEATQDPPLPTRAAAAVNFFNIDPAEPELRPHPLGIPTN

[8] = target: D(4) dopamine receptor (Homo sapiens) (UniProt P21917); details: Compound concentration 10.0 uM
[9] = target: 5-hydroxytryptamine receptor 7 (Homo sapiens, UniProt P34969); details: Compound concentration 10.0 uM
[10] = target: Sigma non-opioid intracellular receptor 1 (Homo sapiens, UniProt Q99720); details: Compound concentration 10.0 uM
Sequence of Sigma non-opioid intracellular receptor 1 (Q99720 whole entry): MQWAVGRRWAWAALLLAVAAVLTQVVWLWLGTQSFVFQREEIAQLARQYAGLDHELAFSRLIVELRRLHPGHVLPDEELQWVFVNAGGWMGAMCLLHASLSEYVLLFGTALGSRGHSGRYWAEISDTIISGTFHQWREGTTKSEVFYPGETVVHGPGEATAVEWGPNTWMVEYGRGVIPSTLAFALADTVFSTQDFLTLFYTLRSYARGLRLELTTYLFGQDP

[11] = target: Alpha-2C adrenergic receptor (Homo sapiens) (UniProt P18825); details: Compound concentration 10.0 uM
[12] = target: Alpha-1A adrenergic receptor (Homo sapiens) (UniProt P35348); details: Compound concentration 10.0 uM
[13] = target: Kappa-type opioid receptor (Homo sapiens, UniProt P41145); details: Compound concentration 10.0 uM
Sequence of Kappa-type opioid receptor (P41145 whole entry): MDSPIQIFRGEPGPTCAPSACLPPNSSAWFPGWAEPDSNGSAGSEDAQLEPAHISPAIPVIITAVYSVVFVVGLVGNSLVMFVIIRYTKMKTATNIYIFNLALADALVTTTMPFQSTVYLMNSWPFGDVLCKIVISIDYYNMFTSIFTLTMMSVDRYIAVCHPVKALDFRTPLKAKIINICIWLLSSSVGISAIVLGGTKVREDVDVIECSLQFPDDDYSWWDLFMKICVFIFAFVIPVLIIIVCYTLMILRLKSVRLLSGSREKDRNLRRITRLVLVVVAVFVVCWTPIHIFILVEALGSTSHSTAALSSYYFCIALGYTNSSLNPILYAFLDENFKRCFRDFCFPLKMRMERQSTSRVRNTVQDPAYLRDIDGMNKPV

[14] = target: Muscarinic acetylcholine receptor M4 (Homo sapiens) (UniProt P08173); details: Compound concentration 10.0 uM
[15] = target: Amyloid-beta precursor protein (Homo sapiens, UniProt P05067); assay: Aβ40 inhibition assay
[16] = target: 5-hydroxytryptamine receptor 1A (Homo sapiens) (UniProt P08908); details: Compound concentration 10.0 uM
[17] = target: Sigma intracellular receptor 2 (Homo sapiens, UniProt Q5BJF2); details: Compound concentration 10.0 uM
Sequence of Sigma intracellular receptor 2 (Q5BJF2 whole entry): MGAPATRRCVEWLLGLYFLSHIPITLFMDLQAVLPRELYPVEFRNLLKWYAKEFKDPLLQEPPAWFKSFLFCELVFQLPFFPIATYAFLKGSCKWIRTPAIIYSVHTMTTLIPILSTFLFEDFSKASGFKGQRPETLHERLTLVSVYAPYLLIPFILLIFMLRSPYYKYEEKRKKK

[18] = target: Beta-3 adrenergic receptor (Homo sapiens) (UniProt P13945); details: Compound concentration 10.0 uM
[19] = target: Sodium-dependent dopamine transporter (Homo sapiens, UniProt Q01959); details: Compound concentration 10.0 uM
[20] = target: Sodium-dependent noradrenaline transporter (Homo sapiens, UniProt P23975); details: Compound concentration 10.0 uM
[21] = target: 5-hydroxytryptamine receptor 1B (Homo sapiens, UniProt P28222); details: Compound concentration 10.0 uM
Sequence of 5-hydroxytryptamine receptor 1B (P28222 whole entry): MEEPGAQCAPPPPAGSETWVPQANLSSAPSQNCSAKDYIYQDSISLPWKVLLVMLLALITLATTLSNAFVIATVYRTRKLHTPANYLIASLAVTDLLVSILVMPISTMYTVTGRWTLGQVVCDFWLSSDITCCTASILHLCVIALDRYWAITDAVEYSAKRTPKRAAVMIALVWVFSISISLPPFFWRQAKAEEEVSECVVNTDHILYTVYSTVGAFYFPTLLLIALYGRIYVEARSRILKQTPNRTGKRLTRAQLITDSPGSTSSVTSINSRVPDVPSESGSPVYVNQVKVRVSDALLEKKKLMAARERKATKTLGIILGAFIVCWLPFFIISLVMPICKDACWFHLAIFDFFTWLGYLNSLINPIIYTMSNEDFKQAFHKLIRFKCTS

[22] = target: 5-hydroxytryptamine receptor 2A (Homo sapiens, UniProt P28223); details: Compound concentration 10.0 uM
[23] = target: GABA-A receptor; anion channel (Rattus norvegicus) (UniProt O09028+P15431+P18506+P18508+P19969+P20236+P23574+P23576+P28471+P28473+P30191+P62813+P63079+P63138+Q91ZM7+Q9ES14); details: Compound concentration 10.0 uM
[24] = target: Delta-type opioid receptor (Homo sapiens) (UniProt P41143); details: Compound concentration 10.0 uM
Sequence of Delta-type opioid receptor (Homo sapiens) (P41143 whole entry): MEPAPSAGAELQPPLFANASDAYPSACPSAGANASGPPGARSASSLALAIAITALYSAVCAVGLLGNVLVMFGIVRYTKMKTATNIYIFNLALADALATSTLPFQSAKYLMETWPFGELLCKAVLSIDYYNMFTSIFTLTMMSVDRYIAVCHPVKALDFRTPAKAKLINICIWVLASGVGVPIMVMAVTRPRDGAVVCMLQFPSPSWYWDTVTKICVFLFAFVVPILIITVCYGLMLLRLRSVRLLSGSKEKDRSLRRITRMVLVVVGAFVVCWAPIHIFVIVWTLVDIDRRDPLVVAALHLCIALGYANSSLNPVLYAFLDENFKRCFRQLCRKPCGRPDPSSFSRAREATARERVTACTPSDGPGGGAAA

[25] = target: D(1B) dopamine receptor (Homo sapiens) (UniProt P21918); details: Compound concentration 10.0 uM
[26] = target: Alpha-2A adrenergic receptor (Homo sapiens) (UniProt P08913); details: Compound concentration 10.0 uM
[27] = target: Muscarinic acetylcholine receptor M2 (Homo sapiens) (UniProt P08172); details: Compound concentration 10.0 uM
Sequence of Muscarinic acetylcholine receptor M2 (Homo sapiens) (P08172 whole entry): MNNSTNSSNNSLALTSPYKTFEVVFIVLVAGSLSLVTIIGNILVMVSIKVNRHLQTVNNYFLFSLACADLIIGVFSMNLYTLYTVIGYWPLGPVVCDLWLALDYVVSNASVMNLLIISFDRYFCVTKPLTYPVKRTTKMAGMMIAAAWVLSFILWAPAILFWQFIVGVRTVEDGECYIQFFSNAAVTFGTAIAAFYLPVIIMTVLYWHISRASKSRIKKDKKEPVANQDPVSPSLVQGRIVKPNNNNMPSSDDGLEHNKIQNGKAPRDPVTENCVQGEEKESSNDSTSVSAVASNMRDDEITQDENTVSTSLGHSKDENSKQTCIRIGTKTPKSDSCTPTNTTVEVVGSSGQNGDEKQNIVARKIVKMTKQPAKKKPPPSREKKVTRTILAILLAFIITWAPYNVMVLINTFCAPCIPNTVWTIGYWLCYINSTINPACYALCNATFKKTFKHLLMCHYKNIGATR

[28] = target: 5-hydroxytryptamine receptor 2B (Homo sapiens, UniProt P41595); details: Compound concentration 10.0 uM
Sequence of 5-hydroxytryptamine receptor 2B (P41595 whole entry): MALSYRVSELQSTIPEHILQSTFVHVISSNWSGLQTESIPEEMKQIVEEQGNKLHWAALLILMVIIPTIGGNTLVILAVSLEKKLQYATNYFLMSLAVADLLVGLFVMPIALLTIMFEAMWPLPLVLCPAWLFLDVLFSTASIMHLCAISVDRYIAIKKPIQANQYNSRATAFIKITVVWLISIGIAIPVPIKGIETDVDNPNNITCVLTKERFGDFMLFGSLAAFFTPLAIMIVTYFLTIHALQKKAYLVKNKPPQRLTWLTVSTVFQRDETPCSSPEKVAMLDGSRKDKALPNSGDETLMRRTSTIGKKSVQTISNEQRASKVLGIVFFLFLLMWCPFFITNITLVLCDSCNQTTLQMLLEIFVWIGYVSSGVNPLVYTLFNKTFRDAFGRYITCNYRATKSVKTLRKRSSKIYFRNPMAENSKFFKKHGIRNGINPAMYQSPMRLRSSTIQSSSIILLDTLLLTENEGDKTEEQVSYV

D(3) dopamine receptor [29] = target: T1, D(3) dopamine receptor; details: Compound concentration 10.0 uM
[30] = target: 5-hydroxytryptamine receptor 2C (Homo sapiens) (UniProt P28335); details: Compound concentration 10.0 uM
[31] = target: Alpha-1B adrenergic receptor (Homo sapiens) (UniProt P35368); details: Compound concentration 10.0 uM
[32] = target: Muscarinic acetylcholine receptor M1 (Homo sapiens) (UniProt P11229); details: Compound concentration 10.0 uM
[33] = target: 5-hydroxytryptamine receptor 3A (Homo sapiens) (UniProt P46098); details: Compound concentration 10.0 uM
[34] = target: Sodium-dependent serotonin transporter (Homo sapiens) (UniProt P31645); details: Compound concentration 10.0 uM
Sequence of Sodium-dependent serotonin transporter (Homo sapiens) (P31645 whole entry, looked up): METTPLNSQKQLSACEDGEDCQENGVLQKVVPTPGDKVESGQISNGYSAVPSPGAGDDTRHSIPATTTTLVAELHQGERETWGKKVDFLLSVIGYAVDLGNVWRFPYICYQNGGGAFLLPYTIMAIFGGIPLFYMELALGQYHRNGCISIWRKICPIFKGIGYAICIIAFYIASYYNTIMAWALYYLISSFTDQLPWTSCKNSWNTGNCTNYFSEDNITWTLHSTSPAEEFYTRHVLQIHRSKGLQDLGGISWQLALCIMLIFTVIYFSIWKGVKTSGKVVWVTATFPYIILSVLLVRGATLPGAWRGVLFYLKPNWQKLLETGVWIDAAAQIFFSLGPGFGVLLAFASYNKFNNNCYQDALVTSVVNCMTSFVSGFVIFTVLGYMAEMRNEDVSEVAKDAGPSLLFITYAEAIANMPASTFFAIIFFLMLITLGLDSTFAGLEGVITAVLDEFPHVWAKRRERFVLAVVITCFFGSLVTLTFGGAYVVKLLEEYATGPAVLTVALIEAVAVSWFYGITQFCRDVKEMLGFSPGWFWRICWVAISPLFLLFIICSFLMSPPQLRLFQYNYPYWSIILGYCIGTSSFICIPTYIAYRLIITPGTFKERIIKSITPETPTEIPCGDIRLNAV

[35] = target: Histamine H3 receptor (Homo sapiens) (UniProt Q9Y5N1); details: Compound concentration 10.0 uM
[36] = target: 5-hydroxytryptamine receptor 1D (Homo sapiens, UniProt P28221); details: Compound concentration 10.0 uM
[37] = target: Histamine H1 receptor (Homo sapiens) (UniProt P35367); details: Compound concentration 10.0 uM
[38] = target: D(1A) dopamine receptor (Homo sapiens) (UniProt P21728); details: Compound concentration 10.0 uM
Sequence of D(1A) dopamine receptor (Homo sapiens) (P21728 whole entry): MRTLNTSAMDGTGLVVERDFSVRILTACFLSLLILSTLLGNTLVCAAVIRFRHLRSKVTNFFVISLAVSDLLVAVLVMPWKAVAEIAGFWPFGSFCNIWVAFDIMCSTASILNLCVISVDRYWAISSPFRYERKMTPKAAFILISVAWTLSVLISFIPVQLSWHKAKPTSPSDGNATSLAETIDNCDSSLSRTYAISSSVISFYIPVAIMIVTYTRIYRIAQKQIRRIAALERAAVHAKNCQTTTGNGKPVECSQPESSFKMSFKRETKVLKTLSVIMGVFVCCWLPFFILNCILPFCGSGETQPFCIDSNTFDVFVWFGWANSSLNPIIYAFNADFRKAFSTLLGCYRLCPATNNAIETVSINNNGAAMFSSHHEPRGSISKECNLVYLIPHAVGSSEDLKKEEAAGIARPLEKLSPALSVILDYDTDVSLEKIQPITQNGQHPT

[39] = target: Mast/stem cell growth factor receptor Kit (Homo sapiens) (UniProt P10721); details: Compound concentration 1000.0 nM
[40] = target: Beta-adrenergic receptor kinase 1 (Homo sapiens) (UniProt P25098); details: Compound concentration 1000.0 nM
[41] = target: Serine/threonine-protein kinase Chk2 (Homo sapiens) (UniProt O96017); details: Compound concentration 1000.0 nM
[42] = target: Homeodomain-interacting protein kinase 4 (Homo sapiens) (UniProt Q8NE63); details: Compound concentration 1000.0 nM
[43] = test system: ALK tyrosine kinase receptor (Homo sapiens), Q9UM73 [C1156Y]; details: Compound concentration 1000.0 nM
[44] = test system: Mast/stem cell growth factor receptor Kit (Homo sapiens), P10721 [D816V]; details: Compound concentration 1000.0 nM
[45] = target: Serine/threonine-protein kinase WNK3 (Homo sapiens) (UniProt Q9BYP7); details: Compound concentration 1000.0 nM

Sequence of D(2) dopamine receptor (P14416 whole entry): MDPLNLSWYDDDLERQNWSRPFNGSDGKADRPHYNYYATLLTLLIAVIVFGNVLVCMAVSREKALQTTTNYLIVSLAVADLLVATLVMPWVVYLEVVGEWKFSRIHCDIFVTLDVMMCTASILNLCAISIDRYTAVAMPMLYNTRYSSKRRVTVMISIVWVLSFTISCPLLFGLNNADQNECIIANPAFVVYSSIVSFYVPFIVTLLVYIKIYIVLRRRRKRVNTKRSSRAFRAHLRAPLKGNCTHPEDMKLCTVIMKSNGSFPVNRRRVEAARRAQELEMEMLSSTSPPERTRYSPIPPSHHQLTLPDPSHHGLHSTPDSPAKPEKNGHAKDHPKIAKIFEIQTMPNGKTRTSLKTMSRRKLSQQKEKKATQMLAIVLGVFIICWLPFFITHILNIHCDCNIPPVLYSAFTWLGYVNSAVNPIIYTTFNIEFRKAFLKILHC

inhibition [1]: 77.4%
inhibition (D(2) dopamine receptor): 83%
Ki (D(3) dopamine receptor [2]): 710 nM
inhibition [3]: 22.5%
inhibition [4]: 35%
inhibition [5]: 26.5%
inhibition [6]: 49.1%
inhibition [7]: 37.1%
inhibition [8]: 20.4%
inhibition [9]: 70.7%
inhibition [10]: 91.6%
inhibition [11]: 81.4%
inhibition [12]: 12.4%
inhibition [13]: 69.8%
inhibition [14]: 25.6%
IC50 [15]: 1600 nM (not active)
inhibition [16]: 66.3%
inhibition [17]: 83.4%
inhibition [18]: 25.6%
inhibition [19]: 95.9%
inhibition [20]: 50.7%
inhibition [21]: 70.4%
inhibition [22]: 92.2%
inhibition [23]: 14.6%
inhibition [24]: 21.4%
inhibition [25]: 13.1%
inhibition [26]: 82.3%
inhibition [27]: 9.4%
inhibition [28]: 97.2%
inhibition (D(3) dopamine receptor [29]): 86.1%
inhibition [30]: 80.9%
inhibition [31]: 41%
inhibition [32]: 8.44%
inhibition [33]: -5.6%
inhibition [34]: 6.71%
inhibition [35]: 26.9%
inhibition [36]: 61.4%
inhibition [37]: 25.6%
inhibition [38]: 13.8%
SMILES: CC(C)(C)OC(=O)N1CCCC1CNC1CCC(c2cc(F)ccc2F)(S(=O)(=O)c2ccc(Cl)cc2)CC1 (centres undefined) [GSI-NC]

SMILES: O=S(=O)(NC1CCC(c2cc(F)ccc2F)(S(=O)(=O)c2ccc(Cl)cc2)CC1)C(F)(F)F (centres undefined) [MRK-560]
inhibition [1]: -2.13%
inhibition (D(2) dopamine receptor): 11.4%
inhibition [3]: 0.882%
inhibition [4]: -5.05%
inhibition [5]: 1.96%
residual activity [39]: 100%
inhibition [6]: 20%
inhibition [7]: 12.3%
inhibition [8]: 20.1%
inhibition [9]: -5.02%
inhibition [10]: 36.8%
inhibition [11]: 18.2%
inhibition [12]: 9.88%
inhibition [13]: 24.6%
inhibition [14]: 18.9%
IC50 [15]: < 0.5 nM (active)
inhibition [16]: 18.3%
inhibition [17]: 25.2%
inhibition [18]: 13.5%
inhibition [19]: 75.1%
inhibition [20]: 7.49%
inhibition [21]: 15.4%
residual activity [40]: 73%
inhibition [22]: 31.2%
inhibition [23]: 28.6%
inhibition [24]: 20%
residual activity [41]: 100%
inhibition [25]: 11.3%
inhibition [26]: 8.45%
inhibition [27]: -0.654%
inhibition [28]: 4.74%
inhibition (D(3) dopamine receptor [29]): 21.7%
inhibition [30]: 12.3%
residual activity [42]: 74%
inhibition [31]: -5.22%
inhibition [32]: -5.38%
inhibition [33]: -8.12%
residual activity [43]: 100%
residual activity [44]: 92%
inhibition [34]: -3.67%
inhibition [35]: 14.2%
residual activity [45]: 100%
inhibition [36]: 13.9%
inhibition [37]: 20.3%
inhibition [38]: 17.4%
